The target in this assay is human RIP1 kinase domain (2-375) (Homo sapiens (Human), UniProt Q13546). Description: biochemical. The note with it: 50 uM ATP. The assay is classed as biochemical. An outline of the steps:
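50 nM purified kinase domain from baculovirus-infected insect cells, incubated 2 h with compound in 50 mM Hepes pH 7.5, 30 mM MgCl2, 1 mM DTT, 50 uM ATP, 0.002% Brij-35, 0.5% DMSO. ADP formation read by Transcreener FP at 633 nm excitation. Ki^app fitted with the Morrison tight-binding equation.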

[1] abbreviates: human RIP1 kinase domain (2-375), Transcreener ADP assay, 2 hours incubation, read-out: RIP1 Ki.
The mark [2] stands for this setting: Table 1, apparent Ki (Morrison tight-binding fit), 50 nM RIP1 kinase domain, 2 hours incubation, read-out: RIP1 Ki.
Where [3] appears, read: tight-binding apparent inhibition constant, human RIP1 kinase domain (2-375) 50 nM, 2 hours, read-out: Ki.
Where [4] appears, read: human RIP1 kinase domain (2-375), 2 hours incubation, Transcreener ADP assay, read-out: RIP1 Ki.

pKi: −log10 of the molar value. Like-named read-outs stand apart in the source and are kept apart here.

As usually defined, the pKi is the negative decadic logarithm of the Ki, by convention in mol/L.

Chain of human RIP1 kinase domain (2-375) (Q13546 2-375): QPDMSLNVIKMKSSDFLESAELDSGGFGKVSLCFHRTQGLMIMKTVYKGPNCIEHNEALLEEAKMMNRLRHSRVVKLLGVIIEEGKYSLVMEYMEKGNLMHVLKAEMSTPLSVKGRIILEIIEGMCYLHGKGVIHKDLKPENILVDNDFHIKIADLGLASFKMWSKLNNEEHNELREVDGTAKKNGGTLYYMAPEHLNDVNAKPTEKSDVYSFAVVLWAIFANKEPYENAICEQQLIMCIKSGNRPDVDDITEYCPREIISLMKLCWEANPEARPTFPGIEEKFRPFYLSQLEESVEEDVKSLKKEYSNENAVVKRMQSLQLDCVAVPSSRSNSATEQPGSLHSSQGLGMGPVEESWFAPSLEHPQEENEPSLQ

Take `CN1C(=O)[C@@H](NC(=O)c2ncn(Cc3ccc(F)c(F)c3)n2)CCn2nc([C@@H]3CC3(F)F)cc21` [Example 321, 1-(3,4-difluorobenzyl)-N—((S)-2-((S)-2,2-difluorocyclopropyl)-4-methyl-5-oxo-5,6,7,8-tetrahydro-4H-pyrazolo[1,5-a][1,3]diazepin-6-yl)-1H-1,2,4-triazole-3-carboxamide]: the pKi under setting [1] was 7.17.

As to `CC(C1CCn2nnc(C(=O)N[C@H]3COc4ccccc4N(C)C3=O)c2C1)C(F)(F)F` (stereo partly drawn) [Example 252, N—((S)-5-methyl-4-oxo-2,3,4,5-tetrahydrobenzo[b][1,4]oxazepin-3-yl)-5-(1,1,1-trifluoropropan-2-yl)-4,5,6,7-tetrahydro-[1,2,3]triazolo[1,5-a]pyridine-3-carboxamide], under setting [1], the pKi is 7.15.

`CN1C(=O)[C@@H](NC(=O)c2cc3c(cn2)CCCC3)COc2ccccc21` [Example 23, (S)—N-(5-methyl-4-oxo-2,3,4,5-tetrahydrobenzo[b][1,4]oxazepin-3-yl)-5,6,7,8-tetrahydroisoquinoline-3-carboxamide]: the negative logarithm of the Ki (pKi) under setting [2] is 5.70.

`CN1C(=O)[C@@H](NC(=O)c2ncn(Cc3ccc(F)cc3)n2)CCn2nc([C@H]3CC3(F)F)cc21` [Example 317, N—((S)-2-((R)-2,2-difluorocyclopropyl)-4-methyl-5-oxo-5,6,7,8-tetrahydro-4-pyrazolo[1,5-a][1,3]diazepin-6-yl)-1-(4-fluorobenzyl)-1H-1,2,4-triazole-3-carboxamide]: the pKi under setting [1] was 5.18.

As for `CN1C(=O)[C@@H](NC(=O)c2nc3n(n2)CCO[C@@H]3c2ccccc2F)COc2ccccc21` [Example 629, (8R)-8-(2-fluorophenyl)-N-[(3S)-5-methyl-4-oxo-2,3-dihydro-1,5-benzoxazepin-3-yl]-6,8-dihydro-5H-[1,2,4]triazolo[5,1-c][1,4]oxazine-2-carboxamide], the pKi under setting [3] is 7.85.

Regarding `CCC1(C)OCc2nnc(C(=O)N[C@H]3COc4ccccc4N(C)C3=O)cc21` (stereo partly drawn) [Example 201, 5-ethyl-5-methyl-N—((S)-5-methyl-4-oxo-2,3,4,5-tetrahydrobenzo[b][1,4]oxazepin-3-yl)-5,7-dihydrofuro[3,4-c]pyridazine-3-carboxamide], under setting [4], the pKi was 6.39.

For `CN1C(=O)[C@@H](NC(=O)c2ncn(Cc3ccc(F)cc3F)n2)CCn2nc([C@@H]3CC3(F)F)cc21` [Example 322, 1-(2,4-difluorobenzyl)-N—((S)-2-((S)-2,2-difluorocyclopropyl)-4-methyl-5-oxo-5,6,7,8-tetrahydro-4H-pyrazolo[1,5-a][1,3]diazepin-6-yl)-1H-1,2,4-triazole-3-carboxamide], under setting [1], the pKi was 7.54.

Consider `COCCNCc1cc2n(n1)CCC(NC(=O)c1ncn(Cc3ccccc3)n1)C(=O)N2C` (single isomer, unassigned) [Example 780, 1-benzyl-N-(2-(((2-methoxyethyl)amino)methyl)-4-methyl-5-oxo-5,6,7,8-tetrahydro-4H-pyrazolo[1,5-a][1,3]diazepin-6-yl)-1H-1,2,4-triazole-3-carboxamide], for which the pKi (Table 5, apparent Ki (Morrison tight-binding fit), 50 nM RIP1 kinase domain, 2 hours incubation, read-out: Ki) was 6.22.

As for `CN1C(=O)[C@@H](NC(=O)c2nc3n(n2)C(c2ccccc2)CCC3)CCn2nccc21` (stereo partly drawn) [Example 380, N—((S)-4-methyl-5-oxo-5,6,7,8-tetrahydro-4H-pyrazolo[1,5-a][1,3]diazepin-6-yl)-5-phenyl-5,6,7,8-tetrahydro-[1,2,4]triazolo[1,5-a]pyridine-2-carboxamide], under setting [3], the pKi was 6.81.

As to `Cc1cc2n(n1)CC[C@H](NC(=O)c1ncn(CC3CC(C)(C)C3)n1)C(=O)N2C` [Example 555, 1-[(3,3-dimethylcyclobutyl)methyl]-N-(6S)-2,4-dimethyl-5-oxo-7,8-dihydro-6H-pyrazolo[1,5-a][1,3]diazepin-6-yl-1,2,4-triazole-3-carboxamide], the pKi under setting [3] was 7.37.

Take `CN1C(=O)[C@@H](NC(=O)c2nnc(Cc3cccc(F)c3F)[nH]2)CCn2nc(C3CC3)cc21` [Example 514, 5-[(2,3-difluorophenyl)methyl]-N-(6 S)-2-cyclopropyl-4-methyl-5-oxo-7,8-dihydro-6H-pyrazolo[1,5-a][1,3]diazepin-6-yl-4H-1,2,4-triazole-3-carboxamide]: the negative-log Ki (pKi) under setting [3] is 7.77.

As for `CN1C(=O)[C@@H](NC(=O)c2nnn3c2C[C@@H](C(F)(F)F)CC3)COc2ccccc21` [Example 150, (S)-N-((S)-5-methyl-4-oxo-2,3,4,5-tetrahydrobenzo[b][1,4]oxazepin-3-yl)-5-(trifluoromethyl)-4,5,6,7-tetrahydro-[1,2,3]triazolo[1,5-a]pyridine-3-carboxamide], the pKi under setting [4] is 6.90.

With `CN1C(=O)[C@@H](NC(=O)c2n[nH]c3c2CC(c2ccc(F)c(F)c2)OC3)COc2ccccc21` (stereo partly drawn) [Example 206, 5-(3,4-difluorophenyl)-N—((S)-5-methyl-4-oxo-2,3,4,5-tetrahydrobenzo[b][1,4]oxazepin-3-yl)-1,4,5,7-tetrahydropyrano[3,4-c]pyrazole-3-carboxamide], the pKi under setting [4] was 6.88.

For the compound `CC(C)n1ncc2c1OC[C@H](NC(=O)c1nnc(Cc3ccccc3)[nH]1)C(=O)N2C` [Example 179, (S)-5-benzyl-N-(1-isopropyl-4-methyl-5-oxo-4,5,6,7-tetrahydro-1H-pyrazolo[3,4-b][1,4]oxazepin-6-yl)-4H-1,2,4-triazole-3-carboxamide], the pKi under setting [4] is 6.60.

Regarding `CN1C(=O)[C@@H](NC(=O)c2nnc(Cc3ccccc3)o2)CCn2nc(C3CC3)cc21` [Example 282, (S)-5-benzyl-N-(2-cyclopropyl-4-methyl-5-oxo-5,6,7,8-tetrahydro-4H-pyrazolo[1,5-a][1,3]diazepin-6-yl)-1,3,4-oxadiazole-2-carboxamide], the negative logarithm of the Ki (pKi) under setting [1] was 7.23.

For `CN1C(=O)C(NC(=O)c2cn(Cc3ccc(F)c(F)c3)cn2)CCn2ccnc21` (stereo not drawn) [Example 178, 1-(3,4-difluorobenzyl)-N-(9-methyl-8-oxo-6,7,8,9-tetrahydro-5H-imidazo[1,2-a][1,3]diazepin-7-yl)-1H-imidazole-4-carboxamide], under setting [4], the pKi was 6.32.

With `CCCC1(C)OCc2cnc(C(=O)N[C@H]3COc4ccccc4N(C)C3=O)nc21` (stereo partly drawn) [Example 309, 7-methyl-N—((S)-5-methyl-4-oxo-2,3,4,5-tetrahydrobenzo[b][1,4]oxazepin-3-yl)-7-propyl-5,7-dihydrofuro[3,4-d]pyrimidine-2-carboxamide], the pKi under setting [1] was 7.28.

With `Cc1cccnc1Cn1cnc(C(=O)N[C@H]2CCn3nccc3N(C)C2=O)n1` [Example 647, 1-[(3-methyl-2-pyridyl)methyl]-N-(6S)-4-methyl-5-oxo-7,8-dihydro-6H-pyrazolo[1,5-a][1,3]diazepin-6-yl-1,2,4-triazole-3-carboxamide], the negative-log Ki (pKi) under setting [3] was 6.80.

On to `CN1C(=O)[C@@H](NC(=O)c2n[nH]c3c2CC2(CC3)CC2(F)F)COc2ccccc21` (stereo partly drawn) [Example 189, 2,2-difluoro-N—((S)-5-methyl-4-oxo-2,3,4,5-tetrahydrobenzo[b][1,4]oxazepin-3-yl)-1′,4′,6′,7′-tetrahydrospiro[cyclopropane-1,5′-indazole]-3′-carboxamide], for which the pKi under setting [4] is 6.59.

On to `Cc1nn2c(c1C)N(C)C(=O)[C@@H](NC(=O)c1nnc(Cc3cccc(F)c3F)[nH]1)CC2` [Example 490, 5-[(2,3-difluorophenyl)methyl]-N-(6S)-2,3,4-trimethyl-5-oxo-7,8-dihydro-6H-pyrazolo[1,5-a][1,3]diazepin-6-yl-4H-1,2,4-triazole-3-carboxamide], for which, under setting [3], the pKi was 7.40.

On to `CC[C@@]1(C)OCc2cnc(C(=O)NC3CCn4cncc4N(C)C3=O)cc21` (stereo partly drawn) [Example 294, (1R)-1-ethyl-1-methyl-N-(1-methyl-2-oxo-2,3,4,5-tetrahydro-1H-imidazo[1,5-a][1,3]diazepin-3-yl)-1,3-dihydrofuro[3,4-c]pyridine-6-carboxamide], for which the pKi under setting [1] was 6.25.

On to `CN1C(=O)[C@H](NC(=O)c2ncn(Cc3ccc(Cl)cc3)n2)CCn2nc(C3CC3)cc21` (single isomer, unassigned) [Example 671], for which the pKi under setting [3] was 5.09.

Regarding `CN1C(=O)[C@@H](NC(=O)c2n[nH]c3c2CC2CC2(C)C3)COc2ccccc21` (stereo partly drawn) [Example 1, 5a-methyl-N—((S)-5-methyl-4-oxo-2,3,4,5-tetrahydrobenzo[b][1,4]oxazepin-3-yl)-1,4,4a,5,5a,6-hexahydrocyclopropa[f]indazole-3-carboxamide], under setting [2], the pKi was 5.33.

On to `CN1C(=O)[C@@H](NC(=O)c2ncc3cnn(-c4c(F)cccc4F)c3n2)COc2ccccc21` [Example 595], for which the pKi under setting [3] was 8.33.

`CCCC1(C)OCc2cnc(C(=O)N[C@H]3CCn4nc(C)cc4N(C)C3=O)nc21` (stereo partly drawn) [Example 564, 7-methyl-7-propyl-N-[(6S)-2,4-dimethyl-5-oxo-7,8-dihydro-6H-pyrazolo[1,5-a][1,3]diazepin-6-yl]-5H-furo[3,4-d]pyrimidine-2-carboxamide]: the pKi under setting [3] was 6.23.

As for `CN1C(=O)[C@@H](NC(=O)c2ncc3cnn(-c4ccccc4)c3n2)COc2ccccc21` [Example 536, phenyl-N-[(3S)-5-methyl-4-oxo-2,3-dihydro-1,5-benzoxazepin-3-yl]pyrazolo[3,4-d]pyrimidine-6-carboxamide], the pKi under setting [3] was 8.46.

With `CC(C)[C@@H]1CCCc2nc(C(=O)N[C@H]3COc4ccccc4N(C)C3=O)nn21` (racemic) [Example 414, (S)-5-isopropyl-N—((S)-5-methyl-4-oxo-2,3,4,5-tetrahydrobenzo[b][1,4]oxazepin-3-yl)-5,6,7,8-tetrahydro-[1,2,4]triazolo[1,5-a]pyridine-2-carboxamide], the pKi under setting [3] is 7.87.

Values taken from patent US10988459B2 (priority 2015, dated 2021).
